Measured values taken from patent publication US8163779B2, “Glucokinase activators” (Takeda San Diego, Inc., priority 2006, dated 2012).
Where a name gives a salt, the structure may show the parent alone.

Target: T1, glucokinase (GK) (Homo sapiens, UniProt P35557)
T1 construct: I.D. No. 1 corresponds to residues 12-465 of glucokinase; made in house; host or cells: E. coli DH10b-T1r
T1 sequence (P35557 with tags, fused parts or gaps isoform P35557-2): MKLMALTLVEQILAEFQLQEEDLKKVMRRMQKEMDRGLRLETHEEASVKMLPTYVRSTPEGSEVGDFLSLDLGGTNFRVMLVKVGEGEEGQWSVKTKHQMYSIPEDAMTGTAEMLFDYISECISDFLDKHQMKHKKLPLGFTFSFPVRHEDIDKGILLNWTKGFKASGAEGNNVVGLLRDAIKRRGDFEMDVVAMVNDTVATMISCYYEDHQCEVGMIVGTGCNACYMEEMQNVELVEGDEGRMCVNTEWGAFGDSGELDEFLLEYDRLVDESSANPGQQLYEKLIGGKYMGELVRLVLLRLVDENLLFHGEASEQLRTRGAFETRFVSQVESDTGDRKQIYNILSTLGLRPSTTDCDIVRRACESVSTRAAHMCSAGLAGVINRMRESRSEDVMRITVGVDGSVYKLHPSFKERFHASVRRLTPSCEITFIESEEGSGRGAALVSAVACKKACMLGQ
Assay: enzymatic glucokinase activity assay (ATP consumption, KinaseGlo luminescence)
Format: biochemical
Settings: recombinant GK residues 12-465; 5 μM ATP, 5 mM Glucose; Kact = concentration that displays 50% of the maximal increase in GK activity; read-out: pKact
Outline: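 Recombinant human glucokinase expressed in E. coli was run in 25 mM Hepes pH 7.2 with 10 mM MgCl2, 1 mM DTT, 5 μM ATP, 5 mM glucose and 2% DMSO for 60 min at room temperature. Remaining ATP was read by KinaseGlo luminescence; pKact came from non-linear curve fits.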

For `CC#CCC(C(=O)Nc1ncc(Cl)s1)n1ccc(S(C)(=O)=O)cc1=O` (stereo not shown) [Example 26, N-(5-chlorothiazol-2-yl)-2-(4-(methylsulfonyl)-2-oxopyridin-1(2H)-yl)hex-4-ynamide], the EC50 was over 15.8 µM.
`Cc1cc(C#CCO)cc(=O)n1[C@H](CC1CCOCC1)C(=O)Nc1ncc(Cl)s1` (stereo in doubt) [Example 137, N-(5-chlorothiazol-2-yl)-2-(4-(3-hydroxyprop-1-ynyl)-6-methyl-2-oxopyridin-1(2H)-yl)-3-(tetrahydro-2H-pyran-4-yl)propanamide] was tested, and the EC50 was over 15.8 µM.
`CS(=O)(=O)c1ccn(C(Cc2c(Cl)cccc2Cl)C(=O)Nc2ncc(Cl)s2)c(=O)c1` (stereo not shown) [Example 17, N-(5-chlorothiazol-2-yl)-3-(2,6-dichlorophenyl)-2-(4-(methylsulfonyl)-2-oxopyridin-1(2H)-yl)propanamide] gave an EC50 of over 15.8 µM.
With `Cc1cc(S(=O)(=O)C2CC2)cc(=O)n1[C@H](CC1CCCC1)C(=O)Nc1cnccn1` [Example 170, (R)-3-cyclopentyl-2-(4-(cyclopropylsulfonyl)-6-methyl-2-oxopyridin-1(2H)-yl)-N-(pyrazin-2-yl)propanamide] the EC50 was over 15.8 µM.
`COc1ccc2nc(NC(=O)C(CC3CCOCC3)n3ccc(S(=O)(=O)C4CC4)cc3=O)sc2c1` (stereo not shown) [Example 127, 2-(4-(cyclopropylsulfonyl)-2-oxopyridin-1(2H)-yl)-N-(6-methoxybenzo[d]thiazol-2-yl)-3-(tetrahydro-2H-pyran-4-yl)propanamide] gave an EC50 of 1.58 to 15.8 µM.
Work on `Cc1cc(-c2cccc(F)c2)cc(=O)n1[C@@H](CC1CCCCC1)C(=O)Nc1nccs1` [Example 109, (S)-3-cyclohexyl-2-(4-(3-fluorophenyl)-6-methyl-2-oxopyridin-1(2H)-yl)-N-(thiazol-2-yl)propanamide] yielded an EC50 of over 15.8 µM.
In the case of `Cc1cc(S(=O)(=O)C2CC2)c(N)c(=O)n1[C@@H](CC1CCCC1)C(=O)Nc1ncc(F)s1` [Example 155, (S)-2-(3-amino-4-(cyclopropylsulfonyl)-6-methyl-2-oxopyridin-1(2H)-yl)-3-cyclopentyl-N-(5-fluorothiazol2-yl)propanamide], the EC50 is reported as 1.58 to 15.8 µM.
`COc1ccc(Cl)cc1-c1cc(C)n([C@@H](CC2CCCCC2)C(=O)Nc2nccs2)c(=O)c1` [Example 103, (S)-2-(4-(5-chloro-2-methoxyphenyl)-6-methyl-2-oxopyridin-1(2H)-yl)-3-cyclohexyl-N-(thiazol-2-yl)propanamide] gave an EC50 of over 15.8 µM.
`Cc1csc(-c2cc(C)n([C@@H](CC3CCCCC3)C(=O)Nc3nccs3)c(=O)c2)c1` [Example 111, (S)-3-cyclohexyl-2-(6-methyl-4-(4-methylthiophen-2-yl)-2-oxopyridin-1(2H)-yl)-N-(thiazol-2-yl)propanamide] was tested, and the EC50 was over 15.8 µM.
With `O=C(Nc1ncc(Cl)s1)C(CC1CCCCC1)n1cc(Cl)c2sccc2c1=O` (stereo not shown) [Example 124, 2-(7-chloro-4-oxothieno[3,2-c]pyridin-5(4H)-yl)-N-(5-chlorothiazol-2-yl)-3-cyclohexylpropanamide] the EC50 was over 15.8 µM.
Compound `Cc1occc1S(=O)(=O)c1cc(C)n([C@H](CC2CCOCC2)C(=O)Nc2ncc(Cl)s2)c(=O)c1` [Example 65, (R)-N-(5-chlorothiazol-2-yl)-2-(6-methyl-4-(2-methylfuran-3-ylsulfonyl)-2-oxopyridin-1(2H)-yl)-3-(tetrahydro-2H-pyran-4-yl)propanamide] has an EC50 of over 15.8 µM.
In the case of `Cc1cc(S(=O)(=O)C2CC2)c(Cl)c(=O)n1[C@@H](CC1CCCCC1)C(=O)Nc1ncc(Cl)s1` [Example 77, (S)-2-(3-chloro-4-(cyclopropylsulfonyl)-6-methyl-2-oxopyridin-1(2H)-yl)-N-(5-chlorothiazol-2-yl)-3-cyclohexylpropanamide], the EC50 is reported as under 1.58 µM.
For `Cc1cc(S(=O)(=O)c2cccs2)cc(=O)n1C(CC1CCCCC1)C(=O)Nc1ncc(Cl)s1` (stereo not shown) [Example 60, N-(5-chlorothiazol-2-yl)-3-cyclohexyl-2-(6-methyl-2-oxo-4-(thiophen-2-ylsulfonyl)pyridin-1(2H)-yl)propanamide], the EC50 was under 1.58 µM.
For `Cc1cc(S(=O)(=O)c2cccc(F)c2)cc(=O)n1[C@@H](CC1CCOCC1)C(=O)Nc1ncc(F)s1` [Example 189, (S)-2-(4-(3-fluorophenylsulfonyl)-6-methyl-2-oxopyridin-1(2H)-yl)-N-(5-fluorothiazol-2-yl)-3-(tetrahydro-2H-pyran-4-yl)propanamide], the EC50 was 1.58 to 15.8 µM.
`COCCC(C)(C)S(=O)(=O)c1ccn([C@@H](CC2CCOCC2)C(=O)Nc2nc3ccc(OC)nc3s2)c(=O)c1` [Example 121, (S)-2-(4-(4-methoxy-2-methylbutan-2-ylsulfonyl)-2-oxopyridin-1(2H)-yl)-N-(5-methoxythiazolo[5,4-b]pyridin-2-yl)-3-(tetrahydro-2H-pyran-4-yl)propanamide] gave an EC50 of 1.58 to 15.8 µM.
In the case of `Cc1cc(-c2cn[nH]c2)cc(=O)n1[C@@H](CC1CCCCC1)C(=O)Nc1nccs1` [Example 113, (S)-3-cyclohexyl-2-(6-methyl-2-oxo-4-(1H-pyrazol-4-yl)pyridin-1(2H)-yl)-N-(thiazol-2-yl)propanamide], the EC50 is reported as over 15.8 µM.
`O=C(Nc1ncc(Cl)s1)C(CC1CCOCC1)n1ccc(S(=O)(=O)CC(F)(F)F)cc1=O` (stereo not shown) [Example 146, N-(5-chlorothiazol-2-yl)-2-(2-oxo-4-(2,2,2-trifluoroethylsulfonyl)pyridin-1(2H)-yl)-3-(tetrahydro-2H-pyran-4-yl)propanamide] was tested, and the EC50 was over 15.8 µM.
`Cc1cc(S(=O)(=O)c2cccc(Cl)c2)cc(=O)n1[C@H](CC1CCOCC1)C(=O)Nc1ncc(F)s1` [Example 169, (R)-2-(4-(3-chlorophenylsulfonyl)-6-methyl-2-oxopyridin-1(2H)-yl)-N-(5-fluorothiazol-2-yl)-3-(tetrahydro-2H-pyran-4-yl)propanamide] showed an EC50 of over 15.8 µM.
Work on `COC(C)(C)c1cnc(NC(=O)[C@H](CC2CCOCC2)n2ccc(S(=O)(=O)C3CC3)cc2=O)s1` [Example 133, (S)-2-(4-(cyclopropylsulfonyl)-2-oxopyridin-1(2H)-yl)-N-(5-(2-methoxypropan-2-yl)thiazol-2-yl)-3-(tetrahydro-2H-pyran-4-yl)propanamide] yielded an EC50 of 1.58 to 15.8 µM.
With `O=C(Nc1ncc(Cl)s1)[C@@H](CC1CCOCC1)n1ccc(S(=O)(=O)CC(F)(F)F)cc1=O` [Example 148, (R)-N-(5-chlorothiazol-2-yl)-2-(2-oxo-4-(2,2,2-trifluoroethylsulfonyl)pyridin-1(2H)-yl)-3-(tetrahydro-2H-pyran-4-yl)propanamide] the EC50 was over 15.8 µM.
Compound `COCCC(C)(C)S(=O)(=O)c1ccn(C(CC2CCOCC2)C(=O)Nc2nc3ccc(OC)nc3s2)c(=O)c1` (stereo not shown) [Example 88, 2-(4-(4-methoxy-2-methylbutan-2-ylsulfonyl)-2-oxopyridin-1(2H)-yl)-N-(5-methoxythiazolo[5,4-b]pyridin-2-yl)-3-(tetrahydro-2H-pyran-4-yl)propanamide] has an EC50 of 1.58 to 15.8 µM.
`Cc1c(S(=O)(=O)C2CCCC2)c(C)c(=O)n([C@H](CC2CCOCC2)C(=O)Nc2ncc(Cl)s2)c1C` [Example 136, (R)-N-(5-chlorothiazol-2-yl)-2-(4-(cyclopentylsulfonyl)-3,5,6-trimethyl-2-oxopyridin-1(2H)-yl)-3-(tetrahydro-2H-pyran-4-yl)propanamide] showed an EC50 of 1.58 to 15.8 µM.
Work on `Cc1cc(S(=O)(=O)C2CCCC2)cc(=O)n1[C@H](CC1CCOCC1)C(=O)Nc1ncc(Cl)s1` [Example 37, (R)-N-(5-chlorothiazol-2-yl)-2-(4-(cyclopentylsulfonyl)-6-methyl-2-oxopyridin-1(2H)-yl)-3-(tetrahydro-2H-pyran-4-yl)propanamide] yielded an EC50 of 1.58 to 15.8 µM.
Work on `Cc1cc(S(=O)(=O)C2CCCC2)cc(=O)n1[C@H](CC1CCOCC1)C(=O)Nc1ccc(C(N)=O)cn1` [Example 181, (R)-6-(2-(4-(cyclopentylsulfonyl)-6-methyl-2-oxopyridin-1(2H)-yl)-3-(tetrahydro-2H-pyran-4-yl)propanamido)nicotinamide] yielded an EC50 of over 15.8 µM.
Compound `COc1ccc2nc(NC(=O)[C@@H](CC3CCOCC3)n3ccc(S(=O)(=O)C4CC4)cc3=O)sc2n1` [Example 48, (R)-2-(4-(cyclopropylsulfonyl)-2-oxopyridin-1(2H)-yl)-N-(5-methoxythiazolo[5,4-b]pyridin-2-yl)-3-(tetrahydro-2H-pyran-4-yl)propanamide] has an EC50 of 1.58 to 15.8 µM.
Compound `Cc1cc(S(=O)(=O)C2CC2)cc(=O)n1[C@@H](CC1CCCC1)C(=O)Nc1cnccn1` [Example 171, (S)-3-cyclopentyl-2-(4-(cyclopropylsulfonyl)-6-methyl-2-oxopyridin-1(2H)-yl)-N-(pyrazin-2-yl)propanamide] has an EC50 of 1.58 to 15.8 µM.
For `CCS(=O)(=O)c1cc(C)n(C(CC2CCCCC2)C(=O)Nc2nccs2)c(=O)c1` (stereo not shown) [Example 4, 3-cyclohexyl-2-(4-(ethylsulfonyl)-6-methyl-2-oxopyridin-1(2H)-yl)-N-(thiazol-2-yl)propanamide trifluoroacetic acid salt], the EC50 was 1.58 to 15.8 µM.
In the case of `Cc1cc(-c2cccc(S(C)(=O)=O)c2)cc(=O)n1[C@@H](CC1CCCCC1)C(=O)Nc1nccs1` [Example 126, (S)-3-cyclohexyl-2-(6-methyl-4-(3-(methylsulfonyl)phenyl)-2-oxopyridin-1(2H)-yl)-N-(thiazol-2-yl)propanamide], the EC50 is reported as over 15.8 µM.
